Results taken from US20250163013A1, “TREATMENT OF GENITOURINARY SYNDROME OF MENOPAUSE” (THE REGENTS OF THE UNIVERSITY OF COLORADO, a body corporate, priority 2022, published 2025).
“Also recorded” adds a separate entry of the source.

How the values were obtained:
estrogen receptor = assay: Screen for agonist or antagonist effects on steroid hormone receptor-mediated gene expression; type: cell-based; conditions: cell lines with endogenous genes or stably integrated reporter genes
Procedure: A screen for the agonist or antagonist effects of a set of commercially available flavonoids was done by assessing their ability to induce or inhibit steroid hormone receptor-mediated gene expression. Cell lines were used in which the activity of endogenous genes or stably integrated reporter genes provided a facile method to quantify the effect of the flavonoids. The compound library was tested for their effects on gene expression mediated by the estrogen receptor, androgen receptor, progesterone receptor, and glucocorticoid receptor. […] Compound 2 differs from compound 1 by the addition of a hydroxyl group at carbon 3 of the flavone scaffold. We reasoned that other substitutions at position 3 could have estrogenic activity. Two novel compounds were tested: compound 3 (6-hydroxy-2-(4-hydroxyphenyl)-3-methyl-4H-chromen-4-one) and compound 4 (3-fluoro-6-hydroxy-2-(4-hydroxyphenyl)-4H-chromen-4-one) of Table 1, which have a methyl or fluoro moiety, respectively, at position 3.

[1] = tested on: Estrogen Response Element (ERE)-luciferase reporter gene; assay: Cell culture-reporter gene assay of estrogenic activity (T47D ERE-luciferase); type: cell-based; conditions: for EC50: Homo sapiens, T47D breast cancer cell line, ERE-luciferase, treated 20 hours, FIG. 4; for estrogenic activity (luciferase) in words: compared to estradiol 1 nM
Procedure: Estrogenic activity was compared to an optimal dose of estradiol (1 nM). Results from cell culture-reporter gene assay was performed in which a T47D breast cancer cell line with a stably integrated Estrogen Response Element (ERE)-luciferase reporter gene was treated for 20 hours with the indicated doses of test compounds (FIG. 4). Luciferase activity was compared to an optimal dose of estradiol (1 nM).

ovariectomized rat [2] = assay: Behavior, appearance, weight and necropsy findings of treated rats; type: in vivo; conditions: intravaginal suppository daily for 14 days
Procedure: (§1) Compound 4 of Table 1 was tested in the ovariectomized rat, a model of GSM, (Yousefzadeh N, et al., Ovariectomized rat model of osteoporosis: a practical guide. EXCLI J. 2020 Jan. 10; 19:89-107. doi: 10.17179/excli2019-1990). Six rats were tested in each of five treatment groups: rats treated with low or high concentrations of control (vehicle only); rats treated with low (0.2 mg/suppository or high (1.0 mg/suppository levels of compound 4 (abbreviated as “3F” in these figures); and rats treated with estradiol 0.1 microgram/suppository. Suppositories were administered intravaginally daily for 14 days. There were two sets of vehicle controls, corresponding to the level of excipients used in the in the low and high compound 4 treatment conditions. The estradiol treatment condition had excipients equivalent to the high control and high compound 4 treatment conditions. The individuals performing the drug treatment of the animals, their gross evaluations, sacrifice and dissection were blinded to the treatment that each group received. […] J Steroid Biochem Mol Biol. 2008 March; 109(1-2):67-80 doi: 10.1016/j.jsbmb.2007.09.023). […] To determine the depth of the epithelium, high quality 100x images were taken of the two regions and thickness of the epithelium measured at 25 distinct sites at each level for each animal, then averaged. […] P values were determined by student's T-test. […]

ovariectomized rat [3] = assay: Ki67 immunohistochemistry of vaginal sections, ovariectomized rat; type: in vivo; conditions: high compound 4, 1.0 mg/suppository daily for 14 days
Procedure: Compound 4 of Table 1 was tested in the ovariectomized rat, a model of GSM, (Yousefzadeh N, et al., Ovariectomized rat model of osteoporosis: a practical guide. EXCLI J. 2020 Jan. 10; 19:89-107. doi: 10.17179/excli2019-1990). Six rats were tested in each of five treatment groups: rats treated with low or high concentrations of control (vehicle only); rats treated with low (0.2 mg/suppository or high (1.0 mg/suppository levels of compound 4 (abbreviated as “3F” in these figures); and rats treated with estradiol 0.1 microgram/suppository. Suppositories were administered intravaginally daily for 14 days. There were two sets of vehicle controls, corresponding to the level of excipients used in the in the low and high compound 4 treatment conditions. The estradiol treatment condition had excipients equivalent to the high control and high compound 4 treatment conditions. […] To determine the depth of the epithelium, high quality 100x images were taken of the two regions and thickness of the epithelium measured at 25 distinct sites at each level for each animal, then averaged. […] P values were determined by student's T-test. […]
Ki-67 is a protein expressed in G1, S, G2, and M phase and has been established as a marker of cellular proliferation. […] Approximately 800 cells were assessed on each slide. […] P values were determined by student's T-test.

ovariectomized rat [4] = assay: Vaginal mucin 5B immunohistochemistry, semi-quantitative score, ovariectomized rat; type: in vivo; conditions: intravaginal suppository daily for 14 days
Procedure: (§2) Compound 4 of Table 1 was tested in the ovariectomized rat, a model of GSM, (Yousefzadeh N, et al., Ovariectomized rat model of osteoporosis: a practical guide. EXCLI J. 2020 Jan. 10; 19:89-107. doi: 10.17179/excli2019-1990). […] To determine the depth of the epithelium, high quality 100x images were taken of the two regions and thickness of the epithelium measured at 25 distinct sites at each level for each animal, then averaged. […] P values were determined by student's T-test. […]
To investigate compound 4-mediated production of mucins in more detail, we investigated the production and presence of mucin 5B in the rat vagina. […] A semi-quantitative scoring system for the mucin 5B immunohistochemistry was designed with values between 0 to 2 in increments of 0.5 for the quantity of mucin 5B and the depth of the epithelium positive for mucin 5B, and then assessed at the levels 1, 2&3, 4&5, and 6&7. The presence of mucin 5B in the vaginal lumen was also assessed, then all values were summed for each animal. […] P values were determined by student's T-tests.

ovariectomized rat [5] = assay: Depth of vaginal epithelium in ovariectomized rat model of GSM; type: in vivo
Procedure: Independent measurement from mid-vagina (sections 3-4) and vagina near the cervix (sections 6-7) are shown. Twenty-five separate measurements were performed on sections 3-4 and also on sections 6-7 for each animal. There were 6 animals per treatment group, therefore each bar represents the mean of 150 measurements with the vertical line indicating one standard deviation.
as §2

[6] = Level in systemic circulation after suppository regimen; type: in vivo; conditions: female, rat, other: intravaginal suppository, one day after a two-week, daily suppository administration regimen, read-out: level in the systemic circulation (undetectable, LOD)
Procedure: as §1

ovariectomized rat [7] = assay: Thickness of uterine endometrium, myometrium and bladder urothelium, ovariectomized rat; type: in vivo; conditions: estradiol 0.1 microgram/suppository daily for 14 days
Procedure: as §2
To ascertain whether compound 4 has an effect on the epithelium of anatomically neighboring tissues, the thickness of the epithelium was assessed in the uterus (a known target tissue of physiological levels of estradiol) and bladder (not an estrogen target tissue). The rats from the five treatment groups in the ovariectomized rat model of GSM described in Example 2 were evaluated for the effects of compound 4 on growth of uterus and bladder. […] The endometrium, myometrium, and urothelium thickness of each animal (n=6) were measured in 20 locations and averaged. […] P values were determined by student T-test.

ovariectomized rat [8] = assay: Ki67 immunohistochemistry of uterine sections, ovariectomized rat; type: in vivo; conditions: estradiol 0.1 microgram/suppository daily for 14 days
Procedure: as §2
Ki67 IHC was performed on a uterine section from animals in the control, the high level of compound 4 (abbreviated as “3F” in these figures), and estradiol groups. […] Approximately 800 cells were assessed for each animal within a group, then averaged to obtain the group mean. […] P values were determined by student T-test.

Compound: O=c1cc(-c2ccc(O)cc2)oc2ccc(O)cc12 [compound 1, 6-hydroxy-2-(4-hydroxyphenyl)-4H-chromen-4-one]
- estrogen agonist effect on estrogen receptor-mediated gene expression (estrogen receptor): estrogen agonist

Compound: O=c1c(O)c(-c2ccc(O)cc2)oc2ccc(O)cc12 [compound 2, 3,6-dihydroxy-2-(4-hydroxyphenyl)-4H-chromen-4-one]
- estrogen agonist effect on estrogen receptor-mediated gene expression (estrogen receptor): superior potency as an estrogen receptor agonist compared to compound 1
- EC50 [1]: 0.044 µM

Compound: Cc1c(-c2ccc(O)cc2)oc2ccc(O)cc2c1=O [compound 3, 6-hydroxy-2-(4-hydroxyphenyl)-3-methyl-4H-chromen-4-one]
- potency compared to compound 2 (fold less potent) ([1]; T47D ERE-luciferase, 20 hours): about 10 fold
- estrogenic activity (luciferase) in words ([1]; T47D ERE-luciferase, 20 hours): at very high doses appears to have superagonist activity

Compound: O=c1c(F)c(-c2ccc(O)cc2)oc2ccc(O)cc12 [compound 4, 3-fluoro-6-hydroxy-2-(4-hydroxyphenyl)-4H-chromen-4-one]
- effect on animal behavior, appearance, weight, necropsy findings (ovariectomized rat [2]): does not affect animal behavior, appearance, weight, or necropsy findings
- percent Ki67 positive cells in vaginal basal and parabasal layers vs control (ovariectomized rat [3]): no statistical difference between the groups
- vaginal production of mucins, in words (ovariectomized rat [4]): stimulates the vaginal production of mucins; also recorded: lower dose of compound 4 treatment results in somewhat higher mucin production than higher dose
- EC50 [1]: 0.024 µM
- estrogenic activity (luciferase) in words ([1]; T47D ERE-luciferase, 20 hours): robust estrogenic activity and superior potency compared to compound 2
- effect on vaginal epithelium structure, in words (ovariectomized rat [5]; 0.2 and 1.0 mg/suppository intravaginally daily for 14 days): dose dependent; also recorded: can restore the structure of the degenerate vaginal epithelium to the same level as estradiol
- mean epithelial depth, p value vs corresponding control (ovariectomized rat [5]; low compound 4, 0.2 mg/suppository intravaginally daily for 14 days, both regions, borderline significant): ≈ 0.05
- concentration at 1 day [6]: < 0.33 ng/mL

Compound: C[C@]12CC[C@@H]3c4ccc(O)cc4CC[C@H]3[C@@H]1CC[C@@H]2O [estradiol]
- endometrium, myometrium, and urothelium thickness vs control (ovariectomized rat [7]): None of the pairs exhibited a significant difference
- mean percent Ki67 positive uterine cells vs control (ovariectomized rat [8]): None of the pairs exhibited a significant difference
